Laboratory results reported in article PMC9157191, “The ex vivo pharmacology of HIV-1 antiretrovirals differs between macaques and humans” (iScience, 2022).
Values joined by “and” are separate entries in the source; they are usually repeats but may differ in a detail not shown here. Equal entries are not always repeated.

Experiments:
[1] = Drug concentrations in Rhesus macaque vaginal tissue explants (LC-MS/MS); type: in vitro ADME, Rhesus macaque (Macaca mulatta); details: monkey, vaginal tissue explants, Rh. macaque vaginal explants, 3 h exposure, read-out: Cmax
SIVmac32H K65R = type: cell-based, SIV
SIVmac32H [2] = assay: microbe, parasite or virus in culture; type: cell-based; details: for p27 AUC3-15: Rhesus macaque colorectal explants
HIV-1YU.2 K65RM184V = assay: microbe, parasite or virus in culture; type: cell-based; details: Human colorectal explants;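 for p24 AUC3-15: high arm above the IC50 and low arm below the IC50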
SIVmac32H K65RM184V [3] = assay: microbe, parasite or virus in culture; type: cell-based; details: for p27 AUC3-15: Rhesus macaque colorectal explants
HIV-1YU.2 M184V = assay: microbe, parasite or virus in culture; type: cell-based; details: Human colorectal explants
SIVmac32H [4] = assay: microbe, parasite or virus in culture; type: cell-based; details: for p27 AUC3-15: Rhesus macaque vaginal explants
[5] = Drug concentrations in Rhesus macaque colorectal tissue explants (LC-MS/MS); type: in vitro ADME, Rhesus macaque (Macaca mulatta); details: for AUC3h–15d / Cmax: Rh. macaque colorectal explants, 3 h exposure; for Cmax: monkey, colorectal tissue explants, read-out: Cmax
HIV-1YU.2 = assay: microbe, parasite or virus in culture; type: cell-based; details: Human colorectal explants
[6] = Drug concentrations in Rhesus macaque ecto-cervical tissue explants (LC-MS/MS); type: in vitro ADME, Rhesus macaque (Macaca mulatta); details: for AUC3h–15d / Cmax: Rh. macaque ecto-cervical explants, 3 h exposure; for Cmax: monkey, ecto-cervical tissue explants
SIVmac32H K65RM184V [7] = assay: microbe, parasite or virus in culture; type: cell-based; details: for p27 AUC3-15: Rhesus macaque vaginal explants
HIV-1BaL = assay: microbe, parasite or virus in culture; type: cell-based; details: Human colorectal explants
[8] = Comb. gel, Low [ ]: TFV 7 µM + MVC […]
[9] = Single gel, High [ ]: TFV 70 µM or MVC […]
[10] = Single gel, Low [ ]: TFV 7 µM or MVC […]
[11] = high concentration: TFV 70 µM, MVC […], or TFV 70 µM + MVC […]
[12] = low concentration: TFV 7 µM, MVC […], or TFV 7 µM + MVC […]
[13] = Simian immunodeficiency virus, in Macaca mulatta, 360 h, NHP colorectal explants, day 15
[14] = Human immunodeficiency virus 1, 360 h, day 15
[15] = Simian immunodeficiency virus, in Macaca mulatta, 360 h, NHP vaginal explants, day 15
[16] = Comb. gel, High [ ]: TFV 70 µM + MVC […]

`C[C@H](Cn1cnc2c(N)ncnc21)OCP(=O)(O)O` [TFV, Tenofovir] gave a Cmax [1, 8] of 770 ng/g, a Cmax [1, 9] of 1370 ng/g and a Cmax [1, 10] of 540 ng/g. The IC50 (SIVmac32H K65R) was 46.6 ± 12.6 µM, the “p27 AUC3-15” value (SIVmac32H K65R) was 1.43 ± 0.31 µgxd/ml and 1.95 ± 0.54 µgxd/ml and the “p27 AUC3-15” value (SIVmac32H [2]; [11]) was 1.23 ± 0.14 µgxd/ml. The “p27 AUC3-15” value (SIVmac32H [2]; [12]) was 4.84 ± 1.77 µgxd/ml, the IC50 (SIVmac32H [2]; [13]) was 25.4 ± 5.35 µM and the “p24 AUC3-15” value (HIV-1YU.2 K65RM184V; [11]) was 1.01 ± 0.11 µgxd/ml. The “p24 AUC3-15” value (HIV-1YU.2 K65RM184V; [12]) was 1.88 ± 0.07 µgxd/ml, the IC50 (HIV-1YU.2 K65RM184V; [14]) was 36.4 ± 3.83 µM and the “p27 AUC3-15” value (SIVmac32H K65RM184V [3]; [11]) was 1.38 ± 0.27 µgxd/ml. The “p27 AUC3-15” value (SIVmac32H K65RM184V [3]; [12]) was 1.70 ± 0.32 µgxd/ml, the IC50 (SIVmac32H K65RM184V [3]; [13]) was 47.9 ± 24.9 µM and the “p24 AUC3-15” value (HIV-1YU.2 M184V; [11]) was 0.52 ± 0.02 µgxd/ml. The “p24 AUC3-15” value (HIV-1YU.2 M184V; [12]) was 0.82 ± 0.05 µgxd/ml, the IC50 (HIV-1YU.2 M184V; [14]) was 37.9 ± 12.5 µM and the “p27 AUC3-15” value (SIVmac32H [4]; [11]) was 1.27 ± 0.24 µgxd/ml. For the same compound, the “p27 AUC3-15” value (SIVmac32H [4]; [12]) was 1.44 ± 0.28 µgxd/ml, the IC50 (SIVmac32H [4]; [15]) was 56.1 ± 62.9 µM and the “exposure (AUC3h-15d) fold change” value ([5]; NHP colorectal explants versus ecto-cervical) was 2.5 fold. For the same compound, the “exposure (AUC3h-15d) fold change” value ([5]; NHP colorectal explants versus vaginal tissues) was 4.4 fold, the “AUC3h–15d” value [5, 16] was 66.86 ng·days/mg and the “AUC3h–15d” value [5, 8] was 13.99 ng·days/mg. The “AUC3h–15d” value [5, 9] was 30.64 ng·days/mg, the “AUC3h–15d” value [5, 10] was 4.68 ng·days/mg and the Cmax [5, 16] was 44200 ng/g. For the same compound, the Cmax [5, 8] was 9190 ng/g, the Cmax [5, 9] was 20200 ng/g and the Cmax [5, 10] was 2980 ng/g. For the same compound, the “p24 AUC3-15” value (HIV-1YU.2; [11]) was 1.83 ± 0.18 µgxd/ml, the “p24 AUC3-15” value (HIV-1YU.2; [12]) was 10.73 ± 5.56 µgxd/ml and the IC50 (HIV-1YU.2; [14]) was 28.9 ± 11.8 µM. The “AUC3h-15d fold increase on combining the two ARVs” value ([6]; NHP ecto-cervical explants, combination versus single drug) was 2.2 fold, the “AUC3h–15d” value [6, 16] was 18.55 ng·days/mg and the “AUC3h–15d” value [6, 8] was 14.11 ng·days/mg. The “AUC3h–15d” value [6, 9] was 9.55 ng·days/mg, the “AUC3h–15d” value [6, 10] was 4.99 ng·days/mg and the Cmax [6, 16] was 2460 ng/g. For the same compound, the Cmax [6, 8] was 1860 ng/g, the Cmax [6, 9] was 1250 ng/g and the Cmax [6, 10] was 660 ng/g. For the same compound, the “p27 AUC3-15” value (SIVmac32H K65RM184V [7]; [11]) was 1.37 ± 0.30 µgxd/ml, the “p27 AUC3-15” value (SIVmac32H K65RM184V [7]; [12]) was 1.61 ± 0.29 µgxd/ml and the IC50 (SIVmac32H K65RM184V [7]; [15]) was 77.1 ± 31.5 µM. The “p24 AUC3-15” value (HIV-1BaL; [11]) was 0.41 ± 0.17 µgxd/ml, the “p24 AUC3-15” value (HIV-1BaL; [12]) was 2.57 ± 1.81 µgxd/ml and the IC50 (HIV-1BaL; [14]) was 22.2 ± 1.39 µM.
